Source: ChEMBL document CHEMBL1201862, “PubChem BioAssay data set” (2004)
Calls of active or inactive are those of the source.

Assays:
[1] = target: Alkaline phosphatase, placental type (Homo sapiens, UniProt P05187); assay: PLAP enzyme inhibitors, confirmation, biochemical, luminescence (AID 1512); type: functional
[2] = target: T1, Alkaline phosphatase, tissue-nonspecific isozyme (Homo sapiens, UniProt P05186); assay: human TNAP enzyme inhibitors, SAR follow-up, biochemical, luminescent, dose response (AID 1056)
T1 sequence (P05186 whole entry): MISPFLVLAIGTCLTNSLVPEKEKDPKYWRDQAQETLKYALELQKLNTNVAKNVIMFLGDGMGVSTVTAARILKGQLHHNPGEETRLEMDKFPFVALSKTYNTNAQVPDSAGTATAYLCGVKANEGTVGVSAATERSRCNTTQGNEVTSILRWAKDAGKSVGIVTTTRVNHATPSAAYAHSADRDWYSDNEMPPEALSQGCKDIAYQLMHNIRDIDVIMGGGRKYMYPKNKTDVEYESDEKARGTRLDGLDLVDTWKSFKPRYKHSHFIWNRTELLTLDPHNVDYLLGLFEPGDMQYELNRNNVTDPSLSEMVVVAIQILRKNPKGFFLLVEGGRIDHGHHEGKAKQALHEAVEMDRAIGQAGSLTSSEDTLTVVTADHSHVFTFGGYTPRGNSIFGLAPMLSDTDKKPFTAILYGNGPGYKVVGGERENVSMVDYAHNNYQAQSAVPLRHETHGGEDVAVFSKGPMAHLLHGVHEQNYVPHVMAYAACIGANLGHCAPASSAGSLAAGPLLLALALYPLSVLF

[3] = target: T2, Voltage-gated N-type calcium channel alpha-1B subunit/Amyloid beta A4 precursor protein-binding family A member 1 (Homo sapiens, UniProt Q00975+Q02410); type: protein assay
[4] = target: T2, Voltage-gated N-type calcium channel alpha-1B subunit/Amyloid beta A4 precursor protein-binding family A member 1; type: protein assay; remark: listed apart in the source
Vero [5] = assay: cytotoxicity of synthesized analogs in Vero cells, SAR follow-up, cytotoxicity control for West Nile virus antiviral project, cell-based, set II (AID 2402); type: functional; conditions: Chlorocebus sabaeus
Vero [6] = assay: Vero E6 cell cytotoxicity, SAR follow-up, cytotoxicity control for West Nile virus antiviral project, synthesized analogs (AID 2244); type: functional; conditions: Chlorocebus sabaeus
Vero [7] = assay: West Nile virus CPE inhibition, SAR follow-up, cell-based, synthesized analogs (AID 2238); type: functional; conditions: Chlorocebus sabaeus
Vero [8] = assay: cytotoxicity of synthesized analogs in Vero 76, SAR follow-up, cytotoxicity control for West Nile virus antiviral project, Vero 76 cells (AID 2414); type: functional; conditions: Chlorocebus sabaeus
Integrin alpha-L = Integrin alpha-L (Mus musculus, UniProt P24063); assay: modulators of CD8 T cell-vesicle binding, dose response, powder samples, mouse 2C CD8+ cells (AID 504565); type: functional
[9] = target: T3, Short transient receptor potential channel 4 (Mus musculus, UniProt Q9QUQ5); assay: TRPC4 positive allosteric modulators, dose response, cell-based, HEK293 TRPC4/mu-opioid, Fluo-4 calcium, EC20 DAMGO (AID 434941); type: functional
T3 sequence (Q9QUQ5 whole entry): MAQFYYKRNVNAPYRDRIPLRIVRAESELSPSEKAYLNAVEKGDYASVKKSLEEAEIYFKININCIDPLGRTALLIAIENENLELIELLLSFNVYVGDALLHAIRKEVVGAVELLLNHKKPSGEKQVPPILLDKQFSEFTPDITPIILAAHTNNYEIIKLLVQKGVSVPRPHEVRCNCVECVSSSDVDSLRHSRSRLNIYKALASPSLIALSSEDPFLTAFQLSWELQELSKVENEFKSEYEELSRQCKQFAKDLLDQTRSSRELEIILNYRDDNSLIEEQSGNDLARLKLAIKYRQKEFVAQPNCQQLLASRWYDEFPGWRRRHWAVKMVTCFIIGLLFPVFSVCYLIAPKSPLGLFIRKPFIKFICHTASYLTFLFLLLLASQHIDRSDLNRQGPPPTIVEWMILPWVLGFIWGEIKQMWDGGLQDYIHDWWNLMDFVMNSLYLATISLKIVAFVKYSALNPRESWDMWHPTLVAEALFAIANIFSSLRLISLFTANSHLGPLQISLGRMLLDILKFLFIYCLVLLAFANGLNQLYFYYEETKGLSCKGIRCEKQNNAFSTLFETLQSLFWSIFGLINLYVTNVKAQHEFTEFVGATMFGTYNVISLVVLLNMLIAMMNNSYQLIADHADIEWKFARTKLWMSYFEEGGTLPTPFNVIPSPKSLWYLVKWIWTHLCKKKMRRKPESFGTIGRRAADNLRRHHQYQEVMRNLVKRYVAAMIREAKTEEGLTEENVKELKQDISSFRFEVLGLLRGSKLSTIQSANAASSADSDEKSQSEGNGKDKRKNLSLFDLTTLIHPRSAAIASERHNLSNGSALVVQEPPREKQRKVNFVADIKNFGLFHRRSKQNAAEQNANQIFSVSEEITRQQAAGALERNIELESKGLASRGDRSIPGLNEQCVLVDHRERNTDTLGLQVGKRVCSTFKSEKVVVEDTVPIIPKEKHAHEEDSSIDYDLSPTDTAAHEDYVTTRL

[10] = target: T4, Tyrosine-protein phosphatase non-receptor type 7 (Homo sapiens, UniProt P35236); type: functional
T4 sequence (P35236 whole entry): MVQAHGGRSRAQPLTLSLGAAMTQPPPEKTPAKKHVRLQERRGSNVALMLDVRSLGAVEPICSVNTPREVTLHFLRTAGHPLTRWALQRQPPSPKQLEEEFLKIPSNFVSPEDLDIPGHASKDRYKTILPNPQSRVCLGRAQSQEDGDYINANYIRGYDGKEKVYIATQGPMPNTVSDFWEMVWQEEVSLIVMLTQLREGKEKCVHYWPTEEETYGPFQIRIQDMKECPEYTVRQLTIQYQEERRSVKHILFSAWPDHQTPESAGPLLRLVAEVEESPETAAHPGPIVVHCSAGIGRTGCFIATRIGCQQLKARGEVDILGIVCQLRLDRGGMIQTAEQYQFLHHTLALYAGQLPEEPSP

[11] = target: Glyceraldehyde-3-phosphate dehydrogenase (Homo sapiens, UniProt P04406)
[12] = target: T5, Dual specificity protein phosphatase 6 (Rattus norvegicus, UniProt Q64346)
T5 sequence (Q64346 whole entry): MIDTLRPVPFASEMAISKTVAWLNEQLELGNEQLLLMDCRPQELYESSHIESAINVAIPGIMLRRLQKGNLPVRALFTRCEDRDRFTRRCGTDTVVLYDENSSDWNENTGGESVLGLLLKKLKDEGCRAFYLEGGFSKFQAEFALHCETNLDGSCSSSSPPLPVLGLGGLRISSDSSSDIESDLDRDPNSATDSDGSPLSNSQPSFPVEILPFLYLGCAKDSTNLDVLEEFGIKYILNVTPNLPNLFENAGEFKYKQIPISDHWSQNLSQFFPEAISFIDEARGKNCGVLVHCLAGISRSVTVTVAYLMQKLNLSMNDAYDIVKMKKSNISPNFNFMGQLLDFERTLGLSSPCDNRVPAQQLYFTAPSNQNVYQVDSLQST

[13] = target: T3, Short transient receptor potential channel 4; assay: mouse TRPC4 channel activators, dose response, cell-based, HEK293 TRPC4/mu-opioid, Fluo-4 calcium (AID 434937); type: functional
[14] = target: T3, Short transient receptor potential channel 4; assay: mouse TRPC4 channel inhibitors, dose response, cell-based, HEK293 TRPC4/mu-opioid, Fluo-4 calcium (AID 434942); type: functional;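 also: potency of inhibitors blocking the TRPC4 calcium response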
[15] = target: T6, Dual specificity protein phosphatase 3 (Homo sapiens, UniProt P51452); assay: MOA VHR1 Fluorescent secondary assay for identification of redox-state modulating compounds. [Related pubchem assays (depositor defined):AID1654, AID1661, AID1878, AID1957]
[16] = target: T5, Dual specificity protein phosphatase 6; type: functional
[17] = target: T4, Tyrosine-protein phosphatase non-receptor type 7; assay: redox-dependent HePTP inhibition, mechanism study, biochemical, fluorescence (AID 2068); type: functional
[18] = target: T6, Dual specificity protein phosphatase 3; assay: SAR VHR1 Fluorescent Assay for In Vitro dose response studies. [Related pubchem assays (depositor defined):AID1654, AID1661, AID1878, AID1992, AID2004, AID2070, AID2085]; type: functional
[19] = cytotoxicity toward DRD oncogenic fibroblasts, dose response, cell-based, non-viral oncogenic, luminescence (AID 1934); type: functional; conditions: Homo sapiens
BJ [20] = assay: cells; type: functional, cell-based; conditions: Homo sapiens
[21] = cytotoxicity in HEK-293T cells, dose response, cytotoxicity control for TCR NF-kB inhibitor project, luminescence, T-cell screen hits (AID 489026); type: functional, cell-based;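 also: cells exposed to compound about 14 hours before the viability readout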
[22] = Luminescent dose response cell-based high throughput screening assay for inhibitors of the Janus kinase 2 mutant JAK2V617F. [Related pubchem assays: 1446 (Primary screen.), 1521 (Confirmation assay.), 1486 (Counter screen.)]; type: functional
HeLa = assay: Cytotoxicity counterscreen assay for transcriptional activators of heat shock protein 70 (Hsp70). [Related pubchem assays: 1203, 1252 ]; type: functional; conditions: Homo sapiens;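 also: cells exposed to compound for 16 hours before readout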
[23] = inhibitors of firefly luciferase expression or activity, dose response, H4 neuroglioma cells, luminescence (AID 1990); type: functional, cell-based
[24] = target: E3 ubiquitin-protein ligase Mdm2/Protein Mdm4 (Homo sapiens, UniProt O15151+Q00987); assay: Mdm2-MdmX interaction inhibitors, dose response, luminescence detection (AID 504593); type: functional
BJ [25] = assay: cytotoxicity toward Ras-transformed BJeLR fibroblasts, dose response, cell-based, alamar blue fluorescence, cherrypicked samples (AID 2631); type: functional; conditions: Homo sapiens;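 also: confirmatory dose-response assay in RAS-dependent BJ fibroblasts engineered with TERT, LT and ST, with cytotoxicity read by fluorescence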
[26] = inhibitors of SNCA 5'UTR-driven reporter translation, confirmation, H4 neuroglioma cells, luminescence (AID 1988); type: functional, cell-based
BJ [27] = assay: cytotoxicity toward BJ-TERT fibroblasts, dose response, cell-based, RAS-independent, luminescence (AID 1933); type: functional; conditions: Homo sapiens
[28] = target: E3 ubiquitin-protein ligase Mdm2 (Homo sapiens, UniProt Q00987); assay: enhancers of MDM2-luciferase reporter signal, concentration-effect titration, project on inhibitors of MDM2 ubiquitin ligase, cellular assay, luminescent readout, 384-well plate format (AID 1394); type: functional;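 also: MDM2 E3 inhibitors raise luminescence so EC50 is for signal enhancement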
[29] = Luminescence Cell-Based Dose Response HTS to Identify Inhibitors of 5'UTR Stem-Loop Driven Prion Protein mRNA Translation in H4 Neuroglioblastoma Cells. [Related pubchem assays: 1827 (Project Summary), 1813 (Primary HTS)]; type: functional
BJ [30] = assay: cytotoxicity toward BJ-TERT-LT-ST fibroblasts, dose response, cell-based, RAS-independent, luminescence (AID 1935); type: functional; conditions: Homo sapiens;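 also: BJ fibroblasts immortalized with TERT plus LT and ST oncogenes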
[31] = target: T7, Hepatocyte nuclear factor 4-alpha (Homo sapiens, UniProt P41235); type: functional, cell-based;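 also: biochemical luminescence-based dose-response counterscreen measuring inhibition of HNF4 dimerization, run alongside a screen for blockers of ABHD5–perilipin-5 interaction; split luciferase complementation of HNF4 fusion proteins in cell lysate measuring dimerization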
T7 sequence (P41235 whole entry): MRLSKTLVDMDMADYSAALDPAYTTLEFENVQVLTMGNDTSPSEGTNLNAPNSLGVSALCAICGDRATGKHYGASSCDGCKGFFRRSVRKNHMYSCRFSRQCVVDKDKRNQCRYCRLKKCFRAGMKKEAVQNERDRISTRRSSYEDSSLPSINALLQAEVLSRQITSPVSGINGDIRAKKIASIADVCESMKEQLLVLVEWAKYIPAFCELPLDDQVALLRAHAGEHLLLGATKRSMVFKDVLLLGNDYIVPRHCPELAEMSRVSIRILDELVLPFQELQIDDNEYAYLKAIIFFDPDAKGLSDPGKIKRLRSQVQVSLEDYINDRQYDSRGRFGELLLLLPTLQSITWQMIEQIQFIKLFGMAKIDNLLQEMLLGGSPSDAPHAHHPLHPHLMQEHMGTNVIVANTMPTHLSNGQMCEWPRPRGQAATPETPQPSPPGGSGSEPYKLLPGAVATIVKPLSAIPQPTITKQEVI

INS1 = assay: beta cell apoptosis inhibitors, cytokine rescue, dose response, luminescence, retest (AID 449756); type: functional, cell-based; conditions: Rattus norvegicus;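 also: cell death triggered by IL-1 beta plus TNF-alpha plus IFN-gamma mixture; protective hits raise ATP signal compared with cytokine alone wells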
Hexokinase = Hexokinase (Trypanosoma brucei, UniProt Q38C41); assay: Confirmation assay for inhibitors of Trypanosoma brucei hexokinase 1-Analogue-first series. [Related pubchem assays (depositor defined):AID1430, AID1632, AID2516, AID2560, AID2579, AID2600, AID449725, AID492951]; type: functional

T6 sequence (P51452 whole entry): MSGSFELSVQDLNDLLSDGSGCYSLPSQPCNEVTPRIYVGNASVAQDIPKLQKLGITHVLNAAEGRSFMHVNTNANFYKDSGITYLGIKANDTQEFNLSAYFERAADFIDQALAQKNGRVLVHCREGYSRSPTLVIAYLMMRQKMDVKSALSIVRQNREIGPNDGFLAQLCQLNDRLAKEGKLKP
T2 sequence (Q00975 whole entry): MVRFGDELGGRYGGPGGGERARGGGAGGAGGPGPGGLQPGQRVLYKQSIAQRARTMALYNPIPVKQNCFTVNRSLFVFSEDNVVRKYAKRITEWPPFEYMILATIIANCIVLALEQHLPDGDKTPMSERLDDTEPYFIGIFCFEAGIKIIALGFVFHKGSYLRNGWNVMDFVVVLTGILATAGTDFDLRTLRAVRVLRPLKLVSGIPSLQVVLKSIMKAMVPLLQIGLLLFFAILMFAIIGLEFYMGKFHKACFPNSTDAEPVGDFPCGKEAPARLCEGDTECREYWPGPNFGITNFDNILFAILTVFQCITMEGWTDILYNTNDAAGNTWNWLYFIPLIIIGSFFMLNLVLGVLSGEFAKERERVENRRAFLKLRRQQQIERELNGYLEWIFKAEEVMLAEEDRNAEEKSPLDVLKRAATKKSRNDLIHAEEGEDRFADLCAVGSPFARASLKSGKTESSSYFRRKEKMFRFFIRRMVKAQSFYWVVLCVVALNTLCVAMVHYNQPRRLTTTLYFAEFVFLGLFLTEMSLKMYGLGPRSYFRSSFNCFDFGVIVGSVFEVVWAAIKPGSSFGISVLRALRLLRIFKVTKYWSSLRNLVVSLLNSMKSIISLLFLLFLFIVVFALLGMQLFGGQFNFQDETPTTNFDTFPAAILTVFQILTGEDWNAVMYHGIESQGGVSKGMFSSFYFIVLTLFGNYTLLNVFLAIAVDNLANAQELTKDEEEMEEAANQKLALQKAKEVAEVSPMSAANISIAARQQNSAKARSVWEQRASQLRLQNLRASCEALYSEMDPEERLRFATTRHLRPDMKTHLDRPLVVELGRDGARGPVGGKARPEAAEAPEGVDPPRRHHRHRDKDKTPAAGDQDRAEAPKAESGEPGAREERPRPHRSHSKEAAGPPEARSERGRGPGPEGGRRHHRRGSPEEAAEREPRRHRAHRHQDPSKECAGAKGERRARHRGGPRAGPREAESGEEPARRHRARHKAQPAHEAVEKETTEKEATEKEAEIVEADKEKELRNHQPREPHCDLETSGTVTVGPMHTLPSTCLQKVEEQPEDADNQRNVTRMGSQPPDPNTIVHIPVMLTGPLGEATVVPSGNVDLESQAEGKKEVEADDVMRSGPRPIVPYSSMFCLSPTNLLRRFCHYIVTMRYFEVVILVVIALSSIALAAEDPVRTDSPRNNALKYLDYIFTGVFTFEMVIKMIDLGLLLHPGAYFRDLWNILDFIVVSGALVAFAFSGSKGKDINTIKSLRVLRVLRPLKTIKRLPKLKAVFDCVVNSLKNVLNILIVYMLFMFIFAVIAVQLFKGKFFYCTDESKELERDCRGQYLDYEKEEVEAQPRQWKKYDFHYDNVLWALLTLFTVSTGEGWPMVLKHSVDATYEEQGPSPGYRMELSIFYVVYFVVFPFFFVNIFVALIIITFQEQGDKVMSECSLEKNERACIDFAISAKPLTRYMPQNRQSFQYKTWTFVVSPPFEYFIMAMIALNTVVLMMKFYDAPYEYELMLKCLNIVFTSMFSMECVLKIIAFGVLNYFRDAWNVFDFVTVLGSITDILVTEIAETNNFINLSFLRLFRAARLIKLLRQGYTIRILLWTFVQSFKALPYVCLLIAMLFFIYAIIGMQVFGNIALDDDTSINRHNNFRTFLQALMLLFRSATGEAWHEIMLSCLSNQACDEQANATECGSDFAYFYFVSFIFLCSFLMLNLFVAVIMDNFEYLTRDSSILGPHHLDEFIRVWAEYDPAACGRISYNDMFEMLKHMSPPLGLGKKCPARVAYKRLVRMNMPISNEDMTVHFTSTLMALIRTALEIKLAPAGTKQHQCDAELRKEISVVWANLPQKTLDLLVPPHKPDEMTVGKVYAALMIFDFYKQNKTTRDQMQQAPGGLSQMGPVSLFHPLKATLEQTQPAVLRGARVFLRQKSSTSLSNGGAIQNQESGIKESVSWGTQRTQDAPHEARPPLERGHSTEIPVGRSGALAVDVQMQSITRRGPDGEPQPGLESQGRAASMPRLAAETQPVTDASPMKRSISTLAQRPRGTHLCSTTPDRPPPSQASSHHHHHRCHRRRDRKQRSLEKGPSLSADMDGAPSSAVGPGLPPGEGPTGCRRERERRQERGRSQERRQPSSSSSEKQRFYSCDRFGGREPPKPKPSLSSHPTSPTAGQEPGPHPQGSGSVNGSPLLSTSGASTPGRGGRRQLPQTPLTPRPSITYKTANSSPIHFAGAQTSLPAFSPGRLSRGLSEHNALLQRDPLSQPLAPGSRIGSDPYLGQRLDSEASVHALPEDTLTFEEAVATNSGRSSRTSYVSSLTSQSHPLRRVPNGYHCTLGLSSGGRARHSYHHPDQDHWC
T2 sequence (Q02410 whole entry): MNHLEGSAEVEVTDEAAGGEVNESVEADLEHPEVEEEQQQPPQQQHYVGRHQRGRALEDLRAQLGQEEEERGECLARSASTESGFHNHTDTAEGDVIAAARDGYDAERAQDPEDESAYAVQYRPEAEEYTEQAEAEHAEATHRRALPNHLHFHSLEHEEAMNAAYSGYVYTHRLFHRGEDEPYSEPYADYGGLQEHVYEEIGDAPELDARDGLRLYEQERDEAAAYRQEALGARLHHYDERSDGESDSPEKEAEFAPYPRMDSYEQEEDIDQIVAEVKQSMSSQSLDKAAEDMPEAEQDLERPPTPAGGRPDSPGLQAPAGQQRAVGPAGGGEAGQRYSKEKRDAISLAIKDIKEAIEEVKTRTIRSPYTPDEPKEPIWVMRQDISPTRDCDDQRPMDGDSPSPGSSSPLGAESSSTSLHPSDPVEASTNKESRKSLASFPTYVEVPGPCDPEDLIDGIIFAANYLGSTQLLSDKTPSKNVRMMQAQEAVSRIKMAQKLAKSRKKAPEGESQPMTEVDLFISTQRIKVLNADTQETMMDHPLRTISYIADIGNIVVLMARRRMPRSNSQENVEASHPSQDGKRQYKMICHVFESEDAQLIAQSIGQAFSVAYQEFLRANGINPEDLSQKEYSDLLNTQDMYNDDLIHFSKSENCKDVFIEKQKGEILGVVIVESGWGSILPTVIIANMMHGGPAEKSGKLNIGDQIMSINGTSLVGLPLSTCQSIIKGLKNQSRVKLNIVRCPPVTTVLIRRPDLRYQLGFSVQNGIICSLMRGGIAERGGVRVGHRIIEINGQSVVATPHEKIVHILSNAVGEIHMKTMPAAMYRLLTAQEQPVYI
E3 ubiquitin-protein ligase Mdm2, sequence (Q00987 whole entry): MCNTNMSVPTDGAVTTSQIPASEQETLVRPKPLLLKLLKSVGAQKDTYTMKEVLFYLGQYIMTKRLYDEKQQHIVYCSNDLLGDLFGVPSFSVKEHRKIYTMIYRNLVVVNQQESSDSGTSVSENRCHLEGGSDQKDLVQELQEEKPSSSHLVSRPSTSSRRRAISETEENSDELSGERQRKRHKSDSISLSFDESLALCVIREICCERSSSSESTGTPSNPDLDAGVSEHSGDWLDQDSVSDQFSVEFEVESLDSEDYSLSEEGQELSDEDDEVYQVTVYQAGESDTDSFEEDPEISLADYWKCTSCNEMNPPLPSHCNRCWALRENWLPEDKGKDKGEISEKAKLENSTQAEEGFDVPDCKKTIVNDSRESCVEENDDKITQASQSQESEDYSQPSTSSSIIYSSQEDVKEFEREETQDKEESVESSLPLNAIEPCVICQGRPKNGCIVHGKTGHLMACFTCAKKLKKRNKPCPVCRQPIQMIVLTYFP
E3 ubiquitin-protein ligase Mdm2/Protein Mdm4, sequence (Q00987 whole entry): as above
E3 ubiquitin-protein ligase Mdm2/Protein Mdm4, sequence (O15151 whole entry): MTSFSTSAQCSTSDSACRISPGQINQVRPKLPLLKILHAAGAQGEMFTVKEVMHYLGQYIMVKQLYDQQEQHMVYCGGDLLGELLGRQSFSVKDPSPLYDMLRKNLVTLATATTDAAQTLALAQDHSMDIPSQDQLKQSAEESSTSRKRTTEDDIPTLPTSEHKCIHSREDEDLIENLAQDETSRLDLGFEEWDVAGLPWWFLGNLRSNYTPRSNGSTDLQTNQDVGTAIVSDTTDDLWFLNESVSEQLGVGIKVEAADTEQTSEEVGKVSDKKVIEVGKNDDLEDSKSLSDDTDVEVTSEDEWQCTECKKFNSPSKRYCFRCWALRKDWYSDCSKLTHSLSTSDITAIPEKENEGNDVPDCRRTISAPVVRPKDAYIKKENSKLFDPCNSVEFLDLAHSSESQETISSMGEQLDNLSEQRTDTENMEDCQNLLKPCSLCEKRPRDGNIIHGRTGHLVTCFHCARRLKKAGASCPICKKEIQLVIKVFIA
Alkaline phosphatase, placental type, sequence (P05187 whole entry): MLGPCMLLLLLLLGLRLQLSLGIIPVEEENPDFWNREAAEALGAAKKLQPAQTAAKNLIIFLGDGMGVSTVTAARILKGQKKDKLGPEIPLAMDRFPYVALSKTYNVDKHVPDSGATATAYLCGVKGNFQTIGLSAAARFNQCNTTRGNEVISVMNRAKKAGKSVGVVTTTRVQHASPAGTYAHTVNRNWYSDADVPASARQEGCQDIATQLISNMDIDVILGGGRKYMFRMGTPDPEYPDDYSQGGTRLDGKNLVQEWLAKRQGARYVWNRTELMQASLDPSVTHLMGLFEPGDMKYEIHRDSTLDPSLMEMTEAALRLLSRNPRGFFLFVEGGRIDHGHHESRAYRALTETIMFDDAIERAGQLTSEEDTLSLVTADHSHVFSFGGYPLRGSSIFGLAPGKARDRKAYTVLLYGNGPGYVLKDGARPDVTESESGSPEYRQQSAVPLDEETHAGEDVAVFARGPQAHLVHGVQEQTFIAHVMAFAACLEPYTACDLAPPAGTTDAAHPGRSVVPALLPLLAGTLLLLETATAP

COc1ccc(-c2nnc(SCC(=O)c3ccc(O)c(O)c3)n2-c2ccc(Cl)cc2)cc1
IC50 [1]: 25 µM (active)
IC50 [2]: > 100 µM (inactive)

COc1ccc2cc(/N=C/c3nc(-c4ccc(C)cc4)oc3O)cnc2c1
IC50 [3]: 10.3 µM (active)
IC50 [4]: > 50 µM (inactive)

O=C(CSc1nc2ccccc2c(=O)n1-c1ccccc1F)Nc1ccc2c(c1)CCC2
CC50 (Vero [5]): > 100 µM (active)
CC50 (Vero [6]): > 40 µM (active)
IC50 (Vero [7]): 16.4 µM (active)
CC50 (Vero [8]): > 66.6 µM (active)

COc1ccc(S(=O)(=O)N2CCCC2C(=O)Nc2ccc(C(C)=O)cc2)cc1 (stereo not given)
EC50 (Integrin alpha-L): 0.04 µM (active)

Cc1ccc(C(C)C)cc1OCCCCN1CCCC1
EC50 [9]: 0.53 µM (active)

Cc1ccc2c(nc3s/c(=C\c4ccc(-c5ccccc5C(=O)O)o4)c(=O)n32)c1C
IC50 [10]: 3.88 µM (active)
IC50 [11]: > 100 µM (not active)
IC50 [12]: 22 µM (active)
EC50 [13]: 6.68 µM (active)
EC50 [14]: 5.31 µM (active)
IC50 [15]: 2.94 µM (active)
IC50 [16]: 35.3 µM (active)
IC50 [17]: 2.2 µM (active)
IC50 [18]: 5.71 µM (active)

CCN1C/C(=C/c2ccc(OC)c(O)c2)C(=O)/C(=C/c2ccc(OC)c(O)c2)C1
EC50 [19]: 1.34 µM (active)
EC50 (BJ [20]): 1.35 µM (inconclusive)
IC50 [21]: > 80 µM (inactive)
IC50 [22]: 0.67 µM (active)
CC50 (HeLa): > 3.67 µM (not active)
EC50 [23]: 0.374 µM (inconclusive)
IC50 [24]: 8.47 µM (active)
EC50 (BJ [25]): 0.38 µM (active)
EC50 [26]: 4.84 µM (active)
EC50 (BJ [27]): 1.78 µM (inconclusive)
EC50 [28]: 0.38 µM (active)
EC50 [29]: 0.221 µM (active)
EC50 (BJ [30]): 1.25 µM (inconclusive)
IC50 [31]: 12.9 µM (inactive)
AC50 (INS1): 4.09 µM (active)

COc1ccc(C(=O)Nc2cc(Cl)c(C)cc2C(=O)O)cc1
IC50 (Hexokinase): 10.3 µM (active)
